The values below come from patent US11839613B2, “Pyrimidine derivatives as PGE2 receptor modulators” (IDORSIA PHARMACEUTICALS LTD, priority 2017, dated 2023).

For one test, the target named is EP4 (Homo sapiens (Human), UniProt P35408). Briefly: hEP4 cAMP assay (BT549 breast cancer cells, HTRF cAMP). In kind it is cell-based. Particulars: antagonistic activity, PGE2 6 nM. A digest of the protocol:
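BT549 breast cancer cells (endogenous EP4) in HBSS/20 mM HEPES/0.2% BSA/2 mM IBMX preincubated 45 min at RT with compound, then stimulated 30 min at RT with 6 nM PGE2 (final). cAMP read by competitive HTRF immunoassay, signal inversely proportional to cAMP.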

The target of a further test is EP2 (Homo sapiens (Human), UniProt P43116). The test can be described thus: hEP2 cAMP assay (SF295 glioblastoma cells, HTRF cAMP). It is filed as cell-based. Particulars: antagonistic activity. The method, boiled down:
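PGE2-driven cAMP accumulation was measured by HTRF in SF295 cells, which express endogenous EP2 only. Cells in assay buffer with 2 mM IBMX were pre-incubated 45 min at RT, then incubated 30 min at RT. Detection used competition between cellular cAMP and d2-cAMP for a cryptate anti-cAMP antibody.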

The target in another test is PTGER2 (EP2) (Homo sapiens (Human), UniProt P43116). The test can be described thus: hEP2 b-arrestin assay (PathHunter HEK 293 PTGER2 b-arrestin cells). It is filed as cell-based. The settings on record: antagonistic activity, beta-arrestin assay; read-out: hEP2 b-arr IC50. On the procedure:
Plate is pre-incubated 15 minutes at 37° C. Then five microliters of PGE2 (final conc. 5 μM) are transferred into the assay plate. Plate is incubated 120 minutes at 37° C.
(each concentration is measured in duplicate)

Another test deals with PTGER4 (EP4) (Homo sapiens (Human), UniProt P35408).
Sequence of PTGER4 (EP4) (P35408 whole entry): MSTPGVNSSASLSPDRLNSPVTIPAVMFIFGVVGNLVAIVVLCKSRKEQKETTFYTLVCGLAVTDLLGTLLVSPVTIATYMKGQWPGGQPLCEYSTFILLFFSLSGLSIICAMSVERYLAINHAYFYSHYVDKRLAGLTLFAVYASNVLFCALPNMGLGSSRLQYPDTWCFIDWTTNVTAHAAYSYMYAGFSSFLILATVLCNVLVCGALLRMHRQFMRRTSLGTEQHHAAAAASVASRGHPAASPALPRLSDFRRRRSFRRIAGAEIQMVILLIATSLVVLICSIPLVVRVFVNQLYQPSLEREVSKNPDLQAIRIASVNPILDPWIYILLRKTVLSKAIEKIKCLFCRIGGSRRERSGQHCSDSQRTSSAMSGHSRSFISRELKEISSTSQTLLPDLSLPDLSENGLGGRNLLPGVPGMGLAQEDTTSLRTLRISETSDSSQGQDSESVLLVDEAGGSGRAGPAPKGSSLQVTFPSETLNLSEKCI

Molecules are shown by their SMILES.

Sequence of EP4 (P35408 whole entry): as above
Sequence of EP2 (P43116 whole entry): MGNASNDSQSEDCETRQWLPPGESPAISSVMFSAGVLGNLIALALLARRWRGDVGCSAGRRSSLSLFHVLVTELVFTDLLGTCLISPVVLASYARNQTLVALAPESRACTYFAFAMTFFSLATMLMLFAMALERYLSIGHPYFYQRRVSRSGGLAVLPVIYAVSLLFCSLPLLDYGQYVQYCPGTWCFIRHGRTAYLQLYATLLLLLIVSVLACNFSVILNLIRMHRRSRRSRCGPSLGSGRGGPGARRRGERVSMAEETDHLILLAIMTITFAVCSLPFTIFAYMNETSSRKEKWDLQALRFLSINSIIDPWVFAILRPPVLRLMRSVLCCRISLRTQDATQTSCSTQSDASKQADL
Sequence of PTGER2 (EP2) (P43116 whole entry): as above

For the molecule `COc1cc2sccc2cc1CCNc1cc(-c2ccc(CC(=O)O)c(SC)c2)ncn1` [Ex 224], the IC50 against EP4 came out at 173 nM; on EP2, 61 nM; at PTGER2 (EP2) it was 84 nM; on PTGER4 (EP4), 260 nM.
As to `COc1cc2c(cc1CCNc1cc(-c3ccc(C(=O)O)c(OC4CCC4)c3)ncn1)OCCO2` [Ex 187], the half-maximal inhibitory concentration (IC50) against EP4 was 206 nM; against EP2 it was 64 nM; on PTGER2 (EP2) it was 74 nM; against PTGER4 (EP4) it was 144 nM.
Consider `CCOc1cc(-c2cc(NCCc3cc4ccccc4c(F)c3OC)ncn2)ccc1C(=O)O` [Ex 174], for which the IC50 stood at 90 nM against EP4, 269 nM against EP2, 409 nM at PTGER2 (EP2) and 88 nM against PTGER4 (EP4).
The matching figures for `CCOc1cc(-c2cc(NCCc3cc(F)c4cc(C)sc4c3OC)ncn2)sc1C(=O)O` [Ex 94]: 59 nM, 528 nM, 423 nM and 49 nM.
For the molecule `N#Cc1csc2ccc(CCNc3cc(-c4ccc(C(=O)O)c(OC5CCC5)c4)ncn3)cc12` [Ex 273], the IC50 was 455 nM on EP4, 140 nM against EP2, 289 nM at PTGER2 (EP2) and 221 nM against PTGER4 (EP4).
With `CSc1cc(-c2cc(NCCc3ccc4c(c3)CCS4)ncn2)ccc1C(=O)O` [Ex 138], the IC50 worked out at 120 nM at EP4, 61 nM at EP2, 74 nM at PTGER2 (EP2) and 358 nM against PTGER4 (EP4).
Regarding `CCOc1cc(-c2cc(NCCc3ccc4c(c3)CCS4)ncn2)sc1C(=O)O` [Ex 15], the IC50 against EP4 was 8 nM; on EP2 it was 28 nM; at PTGER2 (EP2) it was 177 nM; against PTGER4 (EP4), 12 nM.
Regarding `CCOc1cc(-c2cc(NCCc3ccc4sccc4c3C)ncn2)ccc1C(=O)O` [Ex 296], the IC50 on EP4 came out at 583 nM; at EP2 it was 61 nM; at PTGER2 (EP2) it was 34 nM; at PTGER4 (EP4) it was 1600 nM.
The matching figures for `CCOc1cc(-c2cc(NCCc3cc4c(cc3OC)OCCO4)ncn2)sc1C(=O)O` [Ex 26]: 16 nM, 19 nM, 19 nM and 22 nM.
Regarding `COc1cc2ccccc2c(F)c1CCNc1cc(-c2ccc(CC(=O)O)c(SC)c2)ncn1` [Ex 115], the IC50 is 85 nM at EP4, 682 nM on EP2, 243 nM at PTGER2 (EP2) and 53 nM against PTGER4 (EP4).
The matching figures for `COc1cc2c(cc1CCNc1cc(-c3ccc(CC(=O)O)c(SC)c3)ncn1)OCCO2` [Ex 197]: 224 nM, 176 nM, 127 nM and 300 nM.
In the same order, the values of `CSc1cc(-c2cc(NCCc3ccc4scc(C#N)c4c3)ncn2)ccc1C(=O)O` [Ex 212] are 253 nM, 50 nM, 255 nM and 340 nM.
Take `COc1cc2ccccc2c(F)c1CCNc1cc(-c2ccc(C(=O)O)c(OC3CCC3)c2)ncn1` [Ex 25]: the IC50 against EP4 came to 22 nM; on EP2, 98 nM; at PTGER2 (EP2), 96 nM; against PTGER4 (EP4) it was 16 nM.
In the same order, the values of `CSc1cc(-c2cc(NCCc3ccc4scnc4c3)ncn2)ccc1C(=O)O` [Ex 237] are 335 nM, 160 nM, 388 nM and 908 nM.
The matching figures for `CCOc1cc(-c2cc(NCCc3c(F)cc4ncccc4c3F)ncn2)sc1C(=O)O` [Ex 43]: 21 nM, 43 nM, 54 nM and 44 nM.
The matching figures for `CCOc1cc(-c2cc(NCCc3ccc4scc(C#N)c4c3)ncn2)ccc1CC(=O)O` [Ex 209]: 249 nM, 248 nM, 832 nM and 143 nM.
Consider `CCOc1cc2ccccc2cc1CCNc1cc(-c2ccc(C(=O)O)c(OC3CCC3)c2)ncn1` [Ex 171], for which the IC50 against EP4 turned out to be 181 nM; on EP2, 120 nM; on PTGER2 (EP2), 83 nM; against PTGER4 (EP4), 62 nM.
In the same order, the values of `CCOc1cc2sccc2cc1CCNc1cc(-c2ccc(OCC(=O)O)c(OCC)c2)ncn1` [Ex 53] are 25 nM, 12 nM, 5 nM and 12 nM.
The matching figures for `CCOc1cc(-c2cc(NCCc3cc(F)c4c(c3)OCCO4)ncn2)sc1C(=O)O` [Ex 35]: 18 nM, 194 nM, 359 nM and 23 nM.
In the same order, the values of `CCOc1cc(-c2cc(NCCc3ccc4c(c3)COC4)ncn2)sc1C(=O)O` [Ex 164] are 163 nM, 149 nM, 269 nM and 93 nM.
Take `COc1c(CCNc2cc(-c3cc(F)c(C(=O)O)c(OC4CCC4)c3)ncn2)c(F)c(F)c2cc(C)oc12` [Ex 262]: the IC50 against EP4 is 424 nM; at EP2, 855 nM; at PTGER2 (EP2), 1300 nM; against PTGER4 (EP4) it was 186 nM.
The matching figures for `CCOc1cc(-c2cc(NCCc3ccc4ccccc4c3C)ncn2)sc1CC(=O)O` [Ex 148]: 141 nM, 126 nM, 174 nM and 46 nM.
The matching figures for `COc1cc2ccccc2c(C)c1CCNc1cc(-c2ccc(C(=O)O)c(SC)c2)ncn1` [Ex 59]: 30 nM, 18 nM, 37 nM and 94 nM.
The matching figures for `CCOc1cc2ccccc2cc1CCNc1cc(-c2ccc(OCC(=O)O)c(OCC)c2)ncn1` [Ex 160]: 158 nM, 93 nM, 35 nM and 24 nM.
With `CCOc1cc(-c2cc(NCCc3c(F)cc4ccccc4c3F)ncn2)sc1C(=O)O` [Ex 335], the concentration for half-maximal inhibition (IC50) was found to be 3 nM against EP4, 268 nM against EP2, 100 nM at PTGER2 (EP2) and 12 nM against PTGER4 (EP4).
`CCOc1cc(-c2cc(NCCc3cc4c(cc3C#N)OCO4)ncn2)sc1C(=O)O` [Ex 64]: the half-maximal inhibitory concentration (IC50) at EP4 is 33 nM; at EP2, 28 nM; at PTGER2 (EP2), 25 nM; against PTGER4 (EP4), 41 nM.
As for `CCOc1cc(-c2cc(NCCc3ccc4sccc4c3)nc(C)n2)sc1C(=O)O` [Ex 96], the IC50 against EP4 came to 61 nM; at EP2 it was 57 nM; on PTGER2 (EP2), 148 nM; against PTGER4 (EP4) it was 92 nM.
In the same order, the values of `COc1cc2ccccc2c(C)c1CCNc1cc(-c2ccc(C(=O)O)c(OC3CCC3)c2)ncn1` [Ex 79] are 44 nM, 83 nM, 43 nM and 56 nM.
For the molecule `CCOc1cc(-c2cc(NCCc3ccc4c(c3)CCO4)ncn2)sc1C(=O)O` [Ex 114], the IC50 on EP4 worked out at 85 nM; on EP2, 222 nM; on PTGER2 (EP2), 222 nM; against PTGER4 (EP4) it was 640 nM.
Turning to `CCOc1cc(-c2cc(NCCc3cc4c(Cl)ccnc4cc3C)ncn2)sc1C(=O)O` [Ex 178], the half-maximal inhibitory concentration (IC50) worked out at 188 nM on EP4, 54 nM at EP2, 30 nM at PTGER2 (EP2) and 164 nM at PTGER4 (EP4).
In the same order, the values of `CCOc1cc(-c2cc(NCCc3cc4ccsc4cc3OC)ncn2)ccc1CC(=O)O` [Ex 118] are 88 nM, 66 nM, 34 nM and 74 nM.
For `CCOc1cc2ccccc2cc1CCNc1cc(-c2ccc(C(=O)O)c(OCC)c2)ncn1` [Ex 188], the IC50 came out at 206 nM on EP4, 142 nM at EP2, 45 nM at PTGER2 (EP2) and 105 nM on PTGER4 (EP4).
Regarding `CCOc1cc(-c2cc(NCCc3ccc4scnc4c3)ncn2)sc1C(=O)O` [Ex 88], the IC50 amounted to 53 nM at EP4, 64 nM at EP2, 107 nM on PTGER2 (EP2) and 59 nM against PTGER4 (EP4).
The matching figures for `CCOc1cc(-c2cc(NCCc3cc4ccsc4cc3OC)ncn2)ccc1OCC(=O)O` [Ex 80]: 45 nM, 37 nM, 17 nM and 32 nM.
For the molecule `CSc1cc(-c2cc(NCCc3c(C#N)cc4ccccc4c3C)ncn2)ccc1C(=O)O` [Ex 52], the IC50 was determined as 25 nM on EP4, 158 nM on EP2, 318 nM on PTGER2 (EP2) and 63 nM against PTGER4 (EP4).
`CCOc1cc(-c2cc(NCCc3ccc4sccc4c3C)ncn2)sc1C(=O)O` [Ex 20]: the IC50 amounted to 12 nM against EP4, 11 nM on EP2, 27 nM at PTGER2 (EP2) and 74 nM at PTGER4 (EP4).
`CSc1cc(-c2cc(NCCc3cc4c(cc3C#N)OCCO4)ncn2)ccc1C(=O)O` [Ex 97]: the IC50 amounted to 63 nM on EP4, 78 nM on EP2, 192 nM on PTGER2 (EP2) and 147 nM on PTGER4 (EP4).
Take `CCOc1cc(-c2cc(NCCc3ccc4sccc4c3)ncn2)ccc1OC(C)C(=O)O` (stereo not shown) [Ex 202]: the IC50 at EP4 came out at 234 nM; against EP2, 277 nM; at PTGER4 (EP4), 77 nM.
With `CCOc1cc(-c2cc(NCCc3cc4ccsc4cc3C#N)ncn2)ccc1CC(=O)O` [Ex 82], the IC50 against EP4 was 46 nM; on EP2, 251 nM; against PTGER4 (EP4), 128 nM.
